From paper PMC3973950, “Synthesis of 5-arylidine amino-1,3,4-thiadiazol-2-[(N-substituted benzyol)]sulphonamides endowed with potent antioxidants and anticancer activity induces growth inhibition in HEK293, BT474 and NCI-H226 cells” (Medicinal Chemistry Research, 2013)

Legend:
[1] = Total antioxidant activity (ABTS radical cation scavenging); format: biochemical; details: Conc. ± SD; three independent experiments in duplicate; standard trolox; read-out: IC50 inhibitory concentration, ABTS^+ radical
Procedure: The ability of the test sample to scavenge 2,2′-azinobis-(3-ethylbenzothiazoline-6-sulphonic acid) (ABTS^·+) radical cation was compared with 6-hydroxy-2,5,7,8-tetramethylchroman-2-carboxylic acid (trolox) standard (Chang et al., [2007]; Erel, [2004]; Re et al., [1999]). The ABTS^·+ radical cation was pregenerated by mixing ABTS stock solution (7 mM) with potassium persulphate (2.45 mM) (final concentration) and incubating for 12–16 h in the dark at room temperature until the reaction was complete and the absorbance was stable. The absorbance of the ABTS^·+ solution was equilibrated to 0.70 (±0.02) by diluting with water at room temperature, then 1 mL of solution was mixed with 10 μL of the test sample (0.05–10 mg/mL), and the absorbance was measured at 734 nm after 6 min. All experiments were repeated three times. The percentage inhibition of absorbance was calculated and plotted as a function of the concentration of standard and sample to determine the trolox equivalent antioxidant concentration (TEAC). To calculate the TEAC, the gradient of the plot for the sample was divided by the gradient of the plot for trolox. The IC50 inhibitory concentration (nM/mL) values of tested compounds are depicted in Table 1. The ABTS^·+ radical scavenging activity of the samples was expressed as S%=[(Acontrol-Asample)/Acontrol]×100 where A control is the absorbance of the blank control (ABTS^·+ solution without test sample), and A sample is the absorbance of the test sample.

[2] = In vitro cytotoxicity by MTT assay, HEK 293; format: cell-based, human; details: human, HEK 293 cells, read-out: % cytotoxicity (100 − % cell survival) of HEK 293 cell line
How it was run: (§1)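 Cells seeded at ~10,000/well in RPMI-1640 with 10 % newborn calf serum, grown 24 h, then exposed to compounds for 72 h at 37 °C, 5 % CO2. Viability read by MTT (4 h), formazan dissolved in propanol, absorbance at 490 nm.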

[3] = Lipid peroxidation inhibitory activity (egg lecithin liposomes, TBA); format: biochemical; details: Conc. ± SD; standard ascorbic acid; read-out: IC50 inhibitory concentration, Lipid peroxidation
Procedure: Egg lecithin (3 mg/mL phosphate buffer, pH 7.4) was sonicated in an ultrasonic sonicator for 10 min to ensure proper liposome formation. Test samples or standard, ascorbic acid (100 μL) of different concentrations (10, 20, 30, 40 50 and 100 μg/mL) was added to liposome mixture (1 mL); the control was without test sample. Lipid peroxidation was induced by adding ferric chloride (10 μL, 400 mM) and L-ascorbic acid (10 μL, 200 mM). After incubation for 1 h at 37 °C, the reaction was stopped by adding hydrochloric acid (2 mL, 0.25 N) containing trichloroacetic acid (150 mg/mL), thiobarbituric acid (3.75 mg/mL) and butylated hydroxy anisole (0.50 mg/mL). The reaction mixture was subsequently boiled for 15 min, cooled and centrifuged at 1,000 rpm for 15 min, and the absorbance of the supernatant was measured at 532 nm (Duh and Yen, [1997]). The % inhibition at different concentrations was calculated by the following formula %Inhibition=[1-(Vt/Vc)]×100 where V t = mean absorption of test compound, V c = mean absorption of control.
The IC50 (nM/mL) value was derived from the % inhibition at different concentrations.

[4] = DPPH radical scavenging activity; format: biochemical; details: Conc. ± SD; standard ascorbic acid; read-out: IC50 inhibitory concentration, DPPH radical
Procedure: Compounds of SC series were evaluated for their in vitro free radical scavenging activities by 2,2-diphenyl-1-picrylhydrazyl (DPPH) assay method (Blois, [1958]; Shishoo et al., [1999]; Chhajed et al., [2007]). To determine the free radical scavenging activity, a method based on the reduction of a methanolic solution of the coloured DPPH radical was used. To a set of test tubes containing methanol (3 mL), DPPH reagent (2 mg/mL) (50 μL) was added. The initial absorbance was measured. To these test tubes, methanolic solution of different test solutions (1 mg/mL) were added (10–50 μL). Ascorbic acid (0.5 mg/mL) was also added in the concentration of 10, 20, 30, 40, 50 and 100 μL. After 20 min, absorbance was recorded at 516 nm. The experiment was performed in triplicate. The percentage reduction in absorbance was calculated from the initial and final absorbance of each solution (Dhar and Taploo, [1982]).

[5] = In vitro cytotoxicity by MTT assay, NCI-H226; format: cell-based; details: human, NCI-H226 lung cancer cells, 0.015 μM, read-out: % Cytotoxicity (100 − % cell survival) of NCI-H226 cell line
How it was run: as §1

[6] = tested on: NCI-H226 (lung cancer cell line); experiment: In vitro cytotoxicity by MTT assay, NCI-H226; format: cell-based; details: Homo sapiens, 72 h, read-out: % Cytotoxicity (100 − % cell survival) of NCI-H226 cell line; for cytotoxicity at 0.005 µM: NCI-H226, 0.005 μM; for cytotoxicity at 0.045 µM: NCI-H226, 0.045 μM; for cytotoxicity at 0.13 µM: NCI-H226, 0.13 μM; for cytotoxicity at 0.41 µM: NCI-H226, 0.41 μM; for cytotoxicity at 1.23 µM: NCI-H226, 1.23 μM; for cytotoxicity at 3.7 µM: NCI-H226, 3.7 μM; for cytotoxicity at 11.11 µM: NCI-H226, 11.11 μM; for cytotoxicity at 33.33 µM: NCI-H226, 33.33 μM; for cytotoxicity at 100 µM: NCI-H226, 100 μM
How it was run: as §1

| melting point | IC50 [1] | IC50 [3] | IC50 [4] | Compound | cytotoxicity at 72 h, 0.005 µM [2] | cytotoxicity at 72 h, 0.015 µM [2] | cytotoxicity at 72 h, 0.045 µM [2] | cytotoxicity at 72 h, 0.13 µM [2] | cytotoxicity at 72 h, 0.41 µM [2] | cytotoxicity at 72 h, 1.23 µM [2] | cytotoxicity at 72 h, 3.7 µM [2] | cytotoxicity at 72 h, 11.11 µM [2] | cytotoxicity at 72 h, 33.33 µM [2] | cytotoxicity at 72 h, 100 µM [2] | cytotoxicity at 72 h, 0.015 µM [5] | cytotoxicity at 0.005 µM [6] | cytotoxicity at 0.045 µM [6] | cytotoxicity at 0.13 µM [6] | cytotoxicity at 0.41 µM [6] | cytotoxicity at 1.23 µM [6] | also measured |
| --- | --- | --- | --- | --- | --- | --- | --- | --- | --- | --- | --- | --- | --- | --- | --- | --- | --- | --- | --- | --- | --- |
| 215 to 217 °C | 55.6 ± 6.98 µM | 164 ± 14.6 µM | 63.6 ± 8.35 µM | COc1ccc(C=Nc2nnc(S(=O)(=O)NC(=O)c3ccccc3)s2)cc1 [Compound 9d, N-({5-[(4-Methoxybenzylidene)amino]-1,3,4-thiadiazol-2-yl}sulfonyl)benzamide] | 30.6% | 32.6% | 33.9% | 34.8% | 34.8% | 35.5% | 35.8% | 36.3% | 38.2% | 38.9% | 36.3% | 35.6% | 37.5% | 38.3% | 40.6% | 41.2% | cytotoxicity at 3.7 µM [6]: 43.1%; cytotoxicity at 11.11 µM [6]: 47.8%; cytotoxicity at 33.33 µM [6]: 48.2%; cytotoxicity at 100 µM [6]: 53% |
| 178 to 180 °C | 47.9 ± 9.9 µM | 134 ± 14.7 µM | 107 ± 18.1 µM | O=C(NS(=O)(=O)c1nnc(N=Cc2ccc(O)cc2)s1)c1ccccc1 [Compound 9e, N-({5-[(4-Hydroxybenzylidene)amino]-1,3,4-thiadiazol-2-yl}sulfonyl)benzamide] | 25.3% | 26.7% | 26.6% | 28.3% | 29.8% | 30.3% | 31.4% | 34.2% | 37.6% | 39.6% | 40.3% | 39.1% | 41.9% | 42.5% | 43.4% | 45.8% | cytotoxicity at 3.7 µM [6]: 47.6%; cytotoxicity at 11.11 µM [6]: 48.2%; cytotoxicity at 33.33 µM [6]: 49.3%; cytotoxicity at 100 µM [6]: 51.4% |
| 220 to 222 °C | 207 ± 17.4 µM | 204 ± 20.1 µM | 80.6 ± 11.4 µM | O=C(NS(=O)(=O)c1nnc(N=Cc2ccccc2O)s1)c1ccccc1 [Compound 9f, N-({5-[(2-Hydroxybenzylidene)amino]-1,3,4-thiadiazol-2-yl}sulfonyl)benzamide] | 32.5% | 33.1% | 34% | 35.1% | 36.4% | 37.1% | 37.4% | 37.9% | 39.8% | 42.8% | 31.2% | 30.3% | 32.4% | 33.4% | 35% | 35.7% | cytotoxicity at 3.7 µM [6]: 36.9%; cytotoxicity at 11.11 µM [6]: 37.1%; cytotoxicity at 33.33 µM [6]: 38.7%; cytotoxicity at 100 µM [6]: 40.4% |
